# “Also recorded” adds a separate entry of the source.
# Tests used:
# GluA2flip(R) + GSG1L = biological target: T1, GluA2flip(R) + GSG1L (Mus musculus, UniProt P23819, DEL765-802/Q607R); test: Concentration-dependent binding of PFQX1(AF488) to GluA2flip(R) expressed with GSG1L in HEK293T cells; conditions: n = 3–4, read-out: Kd / Affinity of PFQX1(AF488) to GluA2flip(R) with GSG1L
# T1 construct: expressed in transfected cells; host or cells: HEK293T
# Protocol: (§1) HEK293T cells were cotransfected with plasmids for AMPAR [5′UTR-GluA1^flip(R)-3′UTR, GluA2^flip(Q)-3′UTR, GluA3^flip(Q) (Y454A/R461G), and GluA4^flip(Q)], kainate receptor [GluK2(Q)], auxiliary subunits, or the control vector and transfection marker (EFGP-F or mCherry-F). Fluorophore-ligand conjugates were diluted in Hepes-buffered saline (HBS) buffer [20 mM Hepes (pH 7.4), 107 mM NaCl, 6 mM KCl, 1.2 mM MgSO4, 2 mM CaCl2, and 11.5 mM glucose] and added to the cells. Confocal live imaging was performed with LSM900 (Carl Zeiss) equipped with a 63×, numerical aperture (NA) = 1.4 oil-immersion objective. Fluorescence images were acquired by excitation at 405, 488, 561, or 640 nm derived from diode lasers.
# For evaluating the concentration dependency of fluorophore-ligand conjugates, 0.1 nM probe in HBS was added to the dish. Then, probes in HBS were added stepwise to the dish to a final concentration of 0.3, 1, 3, 10, 30, 100, 300, 1000, and 3000 nM. Cell surface fluorescence intensity was quantified from the line scans of transfection marker positive cells and calculated with subtraction of background by ZEN blue software (Carl Zeiss). […]
# (A) Concentration-dependent binding of PFQX1(AF488) to GluA2 flip(R) expressed with GSG1L or TARP γ7. […] (B) The surface intensity of PFQX1(AF488) was quantified. […]
# [1] = pH-dependency of fluorescent intensity in GTA buffer (spectrofluorophotometer); type: physicochemical; conditions: 2 µM probe in GTA buffer pH 4–10, normalized to pH 10
# Protocol: Evaluation of the affinity of PFQX-amine
# HEK293T cells were co-transfected with GluA2 flip(Q)-3’UTR and mCherry-F as a transfection marker. After washing the cells with HBS, 30 nM PFQX1(AF488) was added to the dish. Then, PFQX-amine in HBS was step-wisely added to the dish to a final […]
# performed with confocal microscopy. Cell surface fluorescent intensity was quantified from the line scans of transfection marker positive cells calculated by ZEN blue software and calculated with subtraction of background. The membrane intensity was fitted with KaleidaGraph to calculate the IC50 value using the following equation:a + (b-a)/(1+(x/c)^d). The Ki value was calculated using the Cheng-Prusoff equation: Ki = IC50/(1+[S]/K d). In the equation, [S] and Kd were the concentration and dissociation constant of PFQX1(AF488), respectively. pH-dependency of fluorescent intensity
# Fluorescent intensity was determined by spectrofluorophotometer RF-6000 (Shimadzu). […]
# glutaric acid, 0.1 M Tris, 0.1 M 2-amino-2-methyl-1,3-propanediol) to a final concentration of 2 µM. pH value of GTA buffer was adjusted to 4, 5, 6, 7, 8, 9, and 10.
# Fluorescent intensity was normalized by the intensity at pH 10.
# For the evaluation in cells, HEK293T cells expressing GluA2 or primary cultured hippocampal neurons were used. […]
# [2] = Solubility of PFQX(Dye)s in HBS; type: physicochemical; conditions: aqueous buffer; dissolved in HBS
# Protocol: aAffinity was evaluated in HEK293T cells expressing GluA2 flip(Q).
# S3A. bPFQX(Dye)sweredissolved in HBS.
# cAffinity to native AMPARs were evaluated usingprimary cultured hippocampal
# GluA4 = biological target: T2, GluA4 (Mus musculus, UniProt Q9Z2W8); test: Concentration-dependent binding of PFQX1(AF488), confocal live imaging of HEK293T cells expressing GluA4; conditions: n = 3, read-out: Kd / Affinity of PFQX1(AF488) to GluA4
# T2 construct: expressed in transfected cells; host or cells: HEK293T
# T2 sequence (Q9Z2W8 21-902): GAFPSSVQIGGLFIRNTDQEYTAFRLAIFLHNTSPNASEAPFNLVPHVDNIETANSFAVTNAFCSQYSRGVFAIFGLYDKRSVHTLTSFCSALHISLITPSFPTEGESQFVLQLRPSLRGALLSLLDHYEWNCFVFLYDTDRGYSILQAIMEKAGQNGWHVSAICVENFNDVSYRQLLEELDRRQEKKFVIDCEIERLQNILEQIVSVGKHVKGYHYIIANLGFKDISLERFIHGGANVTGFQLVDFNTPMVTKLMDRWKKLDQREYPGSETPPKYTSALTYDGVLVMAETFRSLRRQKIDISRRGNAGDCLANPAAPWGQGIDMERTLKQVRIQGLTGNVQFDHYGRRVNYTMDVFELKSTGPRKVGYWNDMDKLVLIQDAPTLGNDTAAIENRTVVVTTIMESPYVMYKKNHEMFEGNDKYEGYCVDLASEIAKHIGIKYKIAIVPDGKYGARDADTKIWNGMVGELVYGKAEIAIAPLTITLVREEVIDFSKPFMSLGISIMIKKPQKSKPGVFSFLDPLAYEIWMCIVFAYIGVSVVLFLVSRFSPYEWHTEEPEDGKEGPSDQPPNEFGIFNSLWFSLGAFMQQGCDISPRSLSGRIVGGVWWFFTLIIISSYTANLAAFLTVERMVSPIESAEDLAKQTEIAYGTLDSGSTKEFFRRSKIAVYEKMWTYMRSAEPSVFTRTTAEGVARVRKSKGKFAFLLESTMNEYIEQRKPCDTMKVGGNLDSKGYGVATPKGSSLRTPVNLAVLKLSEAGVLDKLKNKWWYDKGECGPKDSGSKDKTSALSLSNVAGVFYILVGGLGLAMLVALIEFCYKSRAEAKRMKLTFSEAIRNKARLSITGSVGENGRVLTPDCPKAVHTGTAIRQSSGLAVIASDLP
# Protocol: as §1
# (§2) For evaluating the concentration dependency of fluorophore-ligand conjugates, 0.1 nM probe in HBS was added to the dish. Then, probes in HBS were added stepwise to the dish to a final concentration of 0.3, 1, 3, 10, 30, 100, 300, 1000, and 3000 nM. Cell surface fluorescence intensity was quantified from the line scans of transfection marker positive cells and calculated with subtraction of background by ZEN blue software (Carl Zeiss). The membrane intensity was fitted with KaleidaGraph (Synergy software) to calculate the equilibrium constant value using the following equation: a + (b − a)/(1 + (x/c)^d). The equilibrium constant is regarded as the Kd in this study.
# GluA1 = GluA1 (Mus musculus, UniProt P23818); test: Concentration-dependent binding of PFQX1(AF488), confocal live imaging of HEK293T cells expressing GluA1; conditions: n = 3, mean ± s.e.m., read-out: Kd / Affinity of PFQX1(AF488) to GluA1
# Chain of GluA1 (P23818 19-907): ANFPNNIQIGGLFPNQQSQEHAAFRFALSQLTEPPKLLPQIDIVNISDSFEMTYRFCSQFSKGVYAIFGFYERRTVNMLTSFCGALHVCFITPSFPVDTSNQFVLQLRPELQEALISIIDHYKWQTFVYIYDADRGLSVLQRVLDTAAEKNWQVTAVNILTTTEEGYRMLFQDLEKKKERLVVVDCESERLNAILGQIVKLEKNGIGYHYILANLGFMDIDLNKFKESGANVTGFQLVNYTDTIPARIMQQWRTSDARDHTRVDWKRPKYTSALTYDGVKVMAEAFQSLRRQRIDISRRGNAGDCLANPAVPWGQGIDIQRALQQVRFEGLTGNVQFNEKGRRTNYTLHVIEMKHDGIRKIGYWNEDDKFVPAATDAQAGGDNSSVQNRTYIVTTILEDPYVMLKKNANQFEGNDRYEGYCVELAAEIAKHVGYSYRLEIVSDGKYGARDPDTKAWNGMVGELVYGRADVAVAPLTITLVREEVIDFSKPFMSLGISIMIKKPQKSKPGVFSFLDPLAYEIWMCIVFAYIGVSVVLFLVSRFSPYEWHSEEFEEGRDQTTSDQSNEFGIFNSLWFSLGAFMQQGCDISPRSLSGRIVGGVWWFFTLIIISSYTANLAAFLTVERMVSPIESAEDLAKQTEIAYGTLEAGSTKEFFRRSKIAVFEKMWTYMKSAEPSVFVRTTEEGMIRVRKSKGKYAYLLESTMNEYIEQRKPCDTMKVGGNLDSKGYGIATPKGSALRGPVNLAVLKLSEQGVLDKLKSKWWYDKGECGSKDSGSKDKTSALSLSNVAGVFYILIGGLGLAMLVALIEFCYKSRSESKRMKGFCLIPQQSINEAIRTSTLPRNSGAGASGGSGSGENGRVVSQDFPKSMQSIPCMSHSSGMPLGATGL
# Protocol: as §1, §2
# T1 sequence (P23819 with tags, fused parts or gaps isoform P23819-4 Q607R/DEL765-802): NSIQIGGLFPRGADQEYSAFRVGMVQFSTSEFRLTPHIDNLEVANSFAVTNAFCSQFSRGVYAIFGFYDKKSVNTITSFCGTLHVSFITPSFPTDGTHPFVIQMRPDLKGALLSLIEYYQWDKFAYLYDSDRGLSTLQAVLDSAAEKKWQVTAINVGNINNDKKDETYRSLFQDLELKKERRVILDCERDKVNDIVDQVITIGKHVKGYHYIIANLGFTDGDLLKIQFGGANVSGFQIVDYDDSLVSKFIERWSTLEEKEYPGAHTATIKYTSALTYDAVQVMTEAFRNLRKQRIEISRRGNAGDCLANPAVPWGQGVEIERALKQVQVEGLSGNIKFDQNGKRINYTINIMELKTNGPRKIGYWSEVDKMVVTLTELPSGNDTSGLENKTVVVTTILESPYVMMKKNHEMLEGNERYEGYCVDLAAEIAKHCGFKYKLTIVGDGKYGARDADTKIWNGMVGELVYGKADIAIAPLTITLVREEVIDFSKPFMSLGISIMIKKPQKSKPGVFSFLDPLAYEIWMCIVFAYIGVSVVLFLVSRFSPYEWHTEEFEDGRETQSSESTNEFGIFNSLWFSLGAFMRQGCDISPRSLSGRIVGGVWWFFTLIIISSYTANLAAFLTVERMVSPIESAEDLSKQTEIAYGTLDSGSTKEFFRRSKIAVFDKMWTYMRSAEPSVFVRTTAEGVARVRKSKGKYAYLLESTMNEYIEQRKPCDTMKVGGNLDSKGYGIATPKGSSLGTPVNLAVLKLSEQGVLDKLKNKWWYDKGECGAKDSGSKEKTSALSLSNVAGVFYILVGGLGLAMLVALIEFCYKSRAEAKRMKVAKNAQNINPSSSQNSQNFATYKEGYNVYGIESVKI
# T1 sequence (D3Z7H4 whole entry partner): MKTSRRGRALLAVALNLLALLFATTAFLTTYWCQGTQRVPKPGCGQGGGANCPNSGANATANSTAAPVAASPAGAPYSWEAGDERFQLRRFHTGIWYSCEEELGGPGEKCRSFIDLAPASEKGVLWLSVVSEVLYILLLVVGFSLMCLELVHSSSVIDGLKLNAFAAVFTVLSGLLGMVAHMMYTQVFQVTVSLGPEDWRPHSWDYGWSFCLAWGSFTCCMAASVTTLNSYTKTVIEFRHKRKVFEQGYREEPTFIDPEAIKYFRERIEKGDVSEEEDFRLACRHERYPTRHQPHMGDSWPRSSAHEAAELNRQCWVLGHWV
smiles,measurement,setting,value
N=c1ccc2c(-c3ccc(C(=O)NCc4ccn(-c5cc6c(cc5C(F)(F)F)[nH]c(=O)c(=O)n6CC(=O)O)c4)cc3C(=O)O)c3ccc(N)c(S(=O)(=O)O)c3oc-2c1S(=O)(=O)O [PFQX1(AF488)],Kd,GluA2flip(R) + GSG1L,34.5 ± 12.4 nM
same,pH dependency of the fluorescence intensity,[1],relatively unaffected at pH 5 to 10; also recorded: pH-independent manner in the pH 5 to 10 range
same,solubility,[2],> 1470 µM
same,Kd,GluA4,20.2 ± 1.2 nM
same,Kd,GluA1,78.7 ± 15.4 nM

# From publication PMC12143348, “Rapid and reversible fluorescent probe enables repeated snapshot imaging of AMPA receptors during synaptic plasticity” (Science Advances, 2025)
